Test results as given in patent publication EP1073435B1, “SUBSTITUTED TRICYCLIC PYRAZOLE DERIVATIVES WITH PROTEIN KINASE ACTIVITY” (Abbott GmbH & Co. KG, priority 1998, dated 1999).

Assays:
Type in all cases: biochemical
[1] = target: T1, KDR tyrosine kinase (Homo sapiens, UniProt P35968); test: KDR in vitro ELISA; conditions: ELISA assay, ATP 5µM
T1 construct: poly-His6 (N); made in house; host or cells: SF-9 insect cells (baculovirus, pVL1393)
Text: The coding sequence for the KDR intra-cellular domain (aa789-1354) was generated through PCR using cDNAs isolated from HUVEC cells. A poly-His6 sequence was introduced at the N-terminus of this protein as well. This fragment was cloned into transfection vector pVL1393 at the Xba 1 and Not 1 site. Recombinant baculovirus (BV) was generated through co-transfection using the BaculoGold Transfection reagent (PharMingen). Recombinant BV was plaque purified and verified through Western analysis. For protein production, SF-9 cells were grown in SF-900-II medium at 2 x 10^6/ml, and were infected at 0.5 plaque forming units per cell (MOI). Cells were harvested at 48 hours post infection.
SF-9 cells expressing (His)6KDR(aa789-1354) were lysed by adding 50 ml of Triton X-100 lysis buffer (20 mM Tris, pH 8.0, 137 mM NaCl, 10% glycerol, 1% Triton X-100, 1mM PMSF, 10µg/ml aprotinin, 1 µg/ml leupeptin) to the cell pellet from 1L of cell culture. The lysate was centrifuged at 19,000 rpm in a Sorval SS-34 rotor for 30 min at 4°C. The cell lysate was applied to a 5 ml NiCl2 chelating sepharose column, equilibrated with 50 mM HEPES, pH7.5, 0.3 M NaCl. KDR was eluted using the same buffer containing 0.25 M imidazole. Column fractions were analyzed using SDS-PAGE and an ELISA assay (below) which measures kinase activity. […]

[2] = target: T2, human Tie-2 (Homo sapiens, UniProt Q02763); test: ELISA tyrosine kinase assay, TIE2
T2 construct: human Tie-2 intra-cellular domain (aa775-1124) was generated through PCR; made in house; host or cells: SF-9 insect cells (baculovirus)
Text: The coding sequence for the human Tie-2 intra-cellular domain (aa775-1124) was generated through PCR using cDNAs isolated from human placenta as a template. A poly-His6 sequence was introduced at the N-terminus and this construct was cloned into transfection vector […] at the Xba 1 and Not 1 site. Recombinant BV was generated through co-transfection using the BaculoGold Transfection reagent (PharMingen). Recombinant BV was plaque purified and verified through Western analysis. For protein production, SF-9 insect cells were grown in SF-900-II medium at 2 x 10^6/ml, and were infected at MOI of 0.5. Purification of the His-tagged kinase used in screening was analogous to that described for KDR.
The disclosed protocol can be adapted for determining activity with respect to a specific RTK. For example, preferred protocols for conducting the ELISA experiments for KDR is provided below. Adaptation of these protocols for determining a compounds activity for other members of the RTK family, as well as non-receptor tyrosine kinases, are well within the abilities of those in the art.
• 1. Plate Preparation: Dilute PGT stock (50mg/ml, frozen) in PBS to a 250µg/ml. Add 125µl per well of Coming modified flat bottom high affinity ELISA plates (Corning #25805-96). Add 125µl PBS to blank wells. Cover with sealing tape and incubate overnight 37°C. […] Shake on plate reader. • Read OD immediately at 450nm

[3] = target: T3, zapfl (Homo sapiens, UniProt P43403); test: ELISA tyrosine kinase assay, zapfl (ZAP70)
T3 construct: the region encoding the entirety of ZAP70 (amino acids 1-619); made in house; host or cells: SF-9 insect cells (baculovirus, pVL1393)
T3 sequence (P43403 1-619): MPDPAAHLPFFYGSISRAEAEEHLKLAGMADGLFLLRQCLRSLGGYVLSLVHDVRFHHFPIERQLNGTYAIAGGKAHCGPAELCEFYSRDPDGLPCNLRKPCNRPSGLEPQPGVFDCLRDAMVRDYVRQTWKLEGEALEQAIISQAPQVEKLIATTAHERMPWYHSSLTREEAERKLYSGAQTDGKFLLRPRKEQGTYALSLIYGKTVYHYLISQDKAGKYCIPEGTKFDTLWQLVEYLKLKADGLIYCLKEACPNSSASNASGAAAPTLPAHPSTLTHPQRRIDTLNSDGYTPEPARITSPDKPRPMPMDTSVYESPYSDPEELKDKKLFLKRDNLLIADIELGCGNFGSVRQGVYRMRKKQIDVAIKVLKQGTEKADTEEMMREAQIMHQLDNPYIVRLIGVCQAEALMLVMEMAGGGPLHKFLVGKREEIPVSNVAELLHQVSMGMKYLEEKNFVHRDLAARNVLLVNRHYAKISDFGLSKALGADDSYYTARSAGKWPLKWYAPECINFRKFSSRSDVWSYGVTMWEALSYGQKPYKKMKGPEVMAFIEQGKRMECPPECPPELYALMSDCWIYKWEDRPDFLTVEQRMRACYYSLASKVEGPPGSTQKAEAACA
Text: The baculoviral expression vector used was pVL1393. (Pharmingen, Los Angeles, Ca.) The nucleotide sequence encoding amino acids M(H)6 LVPR9S was placed 5' to the region encoding the entirety of ZAP70 (amino acids 1-619). The nucleotide sequence encoding the ZAP70 coding region was generated through PCR using cDNA libraries isolated from Jurkat immortalized T-cells. The histidine residues enabled affinity purification of the protein (vide infra). The LVPR9S bridge constitutes a recognition sequence for proteolytic cleavage by thrombin, enabling removal of the affinity tag from the enzyme. SF-9 insect cells were infected at a multiplicity of infection of 0.5 and harvested 48 hours post infection.
SF-9 cells were lysed in a buffer consisting of 20 mM Tris, pH 8.0, 137 mM NaCl, 10% glycerol, 1% Triton X-100, 1 mM PMSF, 1 µg/ml leupeptin, 10 µg/ml aprotinin and I mM sodium orthovanadate. The soluble lysate was applied to a chelating sepharose HiTrap column (Pharmacia) equilibrated in 50 mM HEPES, pH 7.5, 0.3 M NaCl. Fusion protein was eluted with 250 mM imidazole. The enzyme was stored in buffer containing 50 mM HEPES, pH 7.5, 50 mM NaCl and 5 mM DTT.
The disclosed protocol can be adapted for determining activity with respect to a specific RTK. […]
• 1. […] Shake on plate reader. • Read OD immediately at 450nm

[4] = target: Lck (Homo sapiens, UniProt P06239); test: ELISA tyrosine kinase assay, Lck
Protocol: Lck or truncated forms of Lck may be commercially obtained ( e.g. from Upstate Biotechnology Inc. (Saranac Lake, N.Y) and Santa Cruz Biotechnology Inc. (Santa Cruz, Ca.)) or purified from known natural or recombinant sources using conventional methods.
• 1. Plate Preparation: Dilute PGT stock (50mg/ml, frozen) in PBS to a 250µg/ml. Add 125µl per well of Coming modified flat bottom high affinity ELISA plates (Corning #25805-96). Add 125µl PBS to blank wells. Cover with sealing tape and incubate overnight 37°C. Wash 1x with 250µl washing buffer and dry for about 2hrs in 37°C dry incubator. Store coated plates in sealed bag at 4°C until used. • 2. Tyrosine Kinase Reaction: • Prepare inhibitor solutions at a 4x concentration in 20% DMSO in water. • Prepare reaction buffer • Prepare enzyme solution so that desired units are in 50µl, e.g. for KDR make to 1 ng/µl for a total of 50ng per well in the reactions. Store on ice. • Make 4x ATP solution to 20µM from 100mM stock in water. Store on ice • Add 50µl of the enzyme solution per well • Add 25µl 4x inhibitor • Add 25µl 4x ATP for inhibitor assay • Incubate for 10 minutes at room temperature • Stop reaction by adding 50µl 0.05N HCl per well • Wash plate **Final Concentrations for Reaction: • ATP: 5µM • 5% DMSO • 3. […] Shake on plate reader. • Read OD immediately at 450nm […]

T2 sequence (Q02763 775-1124): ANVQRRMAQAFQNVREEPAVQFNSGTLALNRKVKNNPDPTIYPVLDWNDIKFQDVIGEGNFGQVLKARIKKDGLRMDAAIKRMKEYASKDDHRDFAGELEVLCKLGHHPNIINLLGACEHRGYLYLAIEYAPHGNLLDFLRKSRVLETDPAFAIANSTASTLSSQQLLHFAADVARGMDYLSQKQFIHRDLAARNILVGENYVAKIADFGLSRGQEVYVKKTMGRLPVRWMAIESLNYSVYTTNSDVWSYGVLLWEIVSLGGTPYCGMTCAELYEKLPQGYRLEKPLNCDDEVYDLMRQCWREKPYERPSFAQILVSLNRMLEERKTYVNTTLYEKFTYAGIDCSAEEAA
Chain of Lck (P06239 whole entry, species assumed, the tested form may be a part): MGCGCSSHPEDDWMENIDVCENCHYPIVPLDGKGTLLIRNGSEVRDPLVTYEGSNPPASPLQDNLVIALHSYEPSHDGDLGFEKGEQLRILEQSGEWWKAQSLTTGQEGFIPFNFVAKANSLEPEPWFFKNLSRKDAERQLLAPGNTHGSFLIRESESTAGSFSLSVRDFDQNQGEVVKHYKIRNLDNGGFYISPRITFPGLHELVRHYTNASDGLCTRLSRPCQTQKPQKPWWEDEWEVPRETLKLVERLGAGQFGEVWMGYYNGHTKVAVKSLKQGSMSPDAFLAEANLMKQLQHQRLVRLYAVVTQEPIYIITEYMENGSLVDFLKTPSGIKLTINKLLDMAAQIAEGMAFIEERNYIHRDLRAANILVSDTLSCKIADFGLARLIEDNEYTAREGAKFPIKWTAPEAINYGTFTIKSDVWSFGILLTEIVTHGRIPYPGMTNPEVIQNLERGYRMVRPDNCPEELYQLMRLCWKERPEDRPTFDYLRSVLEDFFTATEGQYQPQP
T1 sequence (P35968 789-1354): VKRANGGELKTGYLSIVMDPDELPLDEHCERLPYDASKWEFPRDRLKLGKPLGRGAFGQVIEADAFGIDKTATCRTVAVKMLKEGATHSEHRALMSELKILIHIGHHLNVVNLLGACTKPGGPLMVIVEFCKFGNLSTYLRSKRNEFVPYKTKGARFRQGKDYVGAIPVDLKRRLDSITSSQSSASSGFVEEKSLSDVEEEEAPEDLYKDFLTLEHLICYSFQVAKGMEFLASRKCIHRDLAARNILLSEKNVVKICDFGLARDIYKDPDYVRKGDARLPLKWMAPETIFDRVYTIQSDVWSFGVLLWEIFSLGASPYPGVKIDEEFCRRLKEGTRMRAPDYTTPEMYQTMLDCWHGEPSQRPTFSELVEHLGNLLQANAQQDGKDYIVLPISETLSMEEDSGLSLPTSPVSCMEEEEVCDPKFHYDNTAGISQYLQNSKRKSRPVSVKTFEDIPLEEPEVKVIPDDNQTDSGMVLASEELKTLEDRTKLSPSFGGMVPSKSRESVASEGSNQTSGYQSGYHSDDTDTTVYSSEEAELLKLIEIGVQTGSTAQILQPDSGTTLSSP

IC50 [1]: 13.4 µM | IC50 [2]: > 30 µM | IC50 [3]: 30.3 µM | IC50 [4]: > 30 µM
Structure (SMILES): c1ccc2c(c1)SCc1c(-c3ccncc3)n[nH]c1-2 [Compound III]
